# Test results published in patent US10640507B2, “PBD antibacterial agents” (KING'S COLLEGE LONDON, priority 2015, dated 2020).
# Where two headings read alike, the source gives them in different places.
# Experiments:
# [1] = test system: K. pneumonia KP16; assay: General MIC protocol, Gram negative; format: cell-based; conditions: K. pneumonia KP16
# Experimental: (§1) General Minimum Inhibitory Concentration (MIC) Protocol
# (§2) 1. Grow up cultures of bacterial strains to be tested overnight.
# (§3) 2. Dilute down overnight cultures to concentration of 1×10^6 bacteria/ml (OD0.01) in Tryptic soy broth (TSB).
# (§4) 3. Add 100 μl of TSB media to column 2-column 12 in 96 well plate (keeping column 1 clear).
# (§5) 4. Make up compound to a concentration of 64 μg/ml in water (or alternatively to twice the chosen maximum concentration to be tested).
# (§6) 5. Add 100 μl of antibiotic solution to the 1st and 2nd columns.
# (§7) 6. Using a multichannel pipette take 100 μl from the 2nd column wells and pipette into 3rd column wells and repeat down the 96 well plate (remembering to include controls i.e. uninfected media and media with no antibiotic).
# (§8) 7. To each well (except uninfected control row H) add 100 μl of bacterially infected media at a concentration of 1×10^6/ml.
# (§9) 8. This dilutes down the concentration of the antibiotic by half (top dose is therefore 32 μg/ml in column 1) and also gives you a starting bacterial concentration of 5×10^5/ml.
# (§10) 9. Wrap plate with parafilm to prevent evaporation.
# (§11) 10. Leave at desired temperature (37° C. unless specified elsewhere) for 20 hours.
# (§12) 11. Next day check plates for growth and measure optical density (i.e. absorbance) at a wavelength of 600 nm (OD600).
# (§13) An example of such a plate is shown in FIG. 1 where column A represents wells that receive the top dose 100 μl; column B represents wells that receive the top dose 100 μl+100 μl TSB; and column C represents wells that receive 100 μl TSB. Row H which is marked by a box labelled D represents a blank where the cells receive no bacteria.
# [2] = test system: K. pneumonia MGH 78578; assay: General MIC protocol, Gram negative; format: cell-based; conditions: K. pneumonia MGH 78578
# Experimental: as §1, §2, §3, §4, §5, §6, §7, §8, §9, §10, §11, §12, §13
# [3] = test system: K. pneumonia NCTC 13438; assay: General MIC protocol, Gram negative; format: cell-based; conditions: K. pneumonia NCTC 13438
# Experimental: as §1, §2, §3, §4, §5, §6, §7, §8, §9, §10, §11, §12, §13
# [4] = test system: K. pneumonia NCTC 13439; assay: General MIC protocol, Gram negative; format: cell-based; conditions: K. pneumonia NCTC 13439
# Experimental: as §1, §2, §3, §4, §5, §6, §7, §8, §9, §10, §11, §12, §13
# [5] = test system: K. pneumonia NCTC 13443; assay: General MIC protocol, Gram negative; format: cell-based; conditions: K. pneumonia NCTC 13443
# Experimental: as §1, §2, §3, §4, §5, §6, §7, §8, §9, §10, §11, §12, §13
# [6] = test system: K. pneumonia NCTC 51851; assay: General MIC protocol, Gram negative; format: cell-based; conditions: K. pneumonia NCTC 51851
# Experimental: as §1, §2, §3, §4, §5, §6, §7, §8, §9, §10, §11, §12, §13
# [7] = test system: P. aeruginosa PA01; assay: General MIC protocol, Gram negative; format: cell-based; conditions: Pseudomonas aeruginosa
# Experimental: as §1, §2, §3, §4, §5, §6, §7, §8, §9, §10, §11, §12, §13
# [8] = test system: Psueudomonas GH12; assay: General MIC protocol, Gram negative; format: cell-based; conditions: Pseudomonas
# Experimental: as §1, §2, §3, §4, §5, §6, §7, §8, §9, §10, §11, §12, §13
# The activity of the compound designated PP-A148 was tested against an extended panel of Klebsiella and Pseudomonas Gram-negative bacterial strains that have proven drug resistant difficult to treat. […] The minimum inhibitory concentration (MIC) was measured using the general MIC protocol given above.
# [9] = test system: Klebsiella KP 342; assay: General MIC protocol, Gram negative; format: cell-based; conditions: KP342
# Experimental: as §1, §2, §3, §4, §5, §6, §7, §8, §9, §10, §11, §12, §13
# The minimum inhibitory concentration (MIC) was measured using the general MIC protocol given above.
# [10] = test system: E. faecalis VRE NCTC 12201; assay: General MIC protocol, Gram positive panel; format: cell-based
# Experimental: as §1, §2, §3, §4, §5, §6, §7, §8, §9, §10, §11, §12, §13
# [11] = test system: E. faecalis VSE NCTC 775; assay: General MIC protocol, Gram positive panel; format: cell-based; conditions: Enterococcus faecalis, NCTC775; VSE 775
# Experimental: as §1, §2, §3, §4, §5, §6, §7, §8, §9, §10, §11, §12, §13
# [12] = test system: E. faecium VRE NCTC 12204; assay: General MIC protocol, Gram positive panel; format: cell-based
# Experimental: as §1, §2, §3, §4, §5, §6, §7, §8, §9, §10, §11, §12, §13
# [13] = test system: EMRSA-15; assay: General MIC protocol, Gram positive panel; format: cell-based
# Experimental: as §1, §2, §3, §4, §5, §6, §7, §8, §9, §10, §11, §12, §13
# [14] = test system: EMRSA-16; assay: General MIC protocol, Gram positive panel; format: cell-based
# Experimental: as §1, §2, §3, §4, §5, §6, §7, §8, §9, §10, §11, §12, §13
# [15] = test system: methicillin sensitive S. aureus ATTC 9144 (NCTC 6571); assay: General MIC protocol, Gram positive panel; format: cell-based; conditions: Staphylococcus aureus, MSSA / NCTC 6571; MSSA 9144
# Experimental: as §1, §2, §3, §4, §5, §6, §7, §8, §9, §10, §11, §12, §13
# [16] = test system: A. baumannii AYE; assay: General MIC protocol, Gram negative; format: cell-based; conditions: Acinetobacter baumannii
# Experimental: as §1, §2, §3, §4, §5, §6, §7, §8, §9, §10, §11, §12, §13
# [17] = test system: A. baumannii NCTC 17978; assay: General MIC protocol, Gram negative; format: cell-based; conditions: Acinetobacter baumannii, NCTC17978
# Experimental: as §1, §2, §3, §4, §5, §6, §7, §8, §9, §10, §11, §12, §13
# [18] = test system: K. pneumonia M6; assay: General MIC protocol, Gram negative; format: cell-based; conditions: Klebsiella pneumoniae; KP-M6
# Experimental: as §1, §2, §3, §4, §5, §6, §7, §8, §9, §10, §11, §12, §13
# [19] = test system: K. pneumonia NCTC 13368; assay: General MIC protocol, Gram negative; format: cell-based
# Experimental: as §1, §2, §3, §4, §5, §6, §7, §8, §9, §10, §11, §12, §13
# [20] = test system: P. aeruginosa NCTC 13437; assay: General MIC protocol, Gram negative; format: cell-based; conditions: Pseudomonas aeruginosa, NCTC13437
# Experimental: as §1, §2, §3, §4, §5, §6, §7, §8, §9, §10, §11, §12, §13
# [21] = test system: HeLa (Cervical cancer cell line); assay: MTT cytotoxicity assay; format: cell-based; conditions: Homo sapiens, MTT, 24 h continuous exposure, read-out: IC50 HeLa (Cervical cancer cell line)
# Experimental: (§14) Two immortalised human cell lines, HeLa and WI38 were used for cytotoxicity screening of the compounds. HeLa is a human cervical cancer cell line and WI38 is a normal healthy cell line. The cell lines were obtained from the American Type Culture Collection. The cell-lines were maintained in monolayer culture in 75 cm2 flasks (TPP, Switzerland) under a humidified 5% CO2 atmosphere at 37° C. The HeLa cell line was maintained in Dulbecco's Modified Eagles Media (DMEM; Invitrogen) supplemented with foetal bovine serum (10% v/v; Invitrogen), L-glutamine (2 mM; Invitrogen), non-essential amino acids (1×; Invitrogen) and Penicillin-Streptomycin (1% v/v, Invitrogen). For WI38, Eagle's Minimum Essential Medium, and Penicillin-Streptomycin (1% v/v, Invitrogen) and foetal bovine serum (10%, nvitrogen) was used. For passaging, cells were washed with phosphate buffered saline [PBS] (GIBCO 14040, Invitrogen, UK), incubated with trypsine (GIBCO 25300, Invitrogen, UK), and re-seeded into fresh medium. For seeding, cells were counted using a Neubauer haemocytometer (Assistant, Germany) by microscopy (Nikon, USA) on a non-adherent suspension of cells that were washed in PBS, trypsinised, centrifuged at 8° C. at 8000 rpm for 5 min and re-suspended in fresh medium.
# (§15) The cells were grown in normal cell culture conditions at 37° C. under a 5% CO2 humidified atmosphere using appropriate medium. The cell count was adjusted to 10^5 cells/ml/ and 20,000 cells were added per well. The cells were incubated for 24 hours and 1 μl of the appropriate inhibitor concentrations were to the wells in triplicates. After 24 h of continuous exposure to each compound, the cytotoxicity was determined using the MIT (3-(4,5-Dimethylthiazol-2-yl)-2,5-diphenyltetrazolium bromide) (Lancaster Synthesis Ltd, UK) colorimetric assay. Absorbance was quantified by spectrophotometry at λ=570 nm (Envision Plate Reader, PerkinElmer, USA). IC50 values were calculated by a dose-response analysis using the Prism Graphpad Prism® software. The cytotoxicity results are shown below in Table 12.
# [22] = test system: WI38 (Healthy cell line); assay: MTT cytotoxicity assay; format: cell-based; conditions: Homo sapiens, WI-38; MTT; 24 h continuous exposure; highest concentration tested 20 μM; read-out: IC50 WI38 (Healthy cell line)
# Experimental: as §14, §15
# [23] = test system: resistant mutants of KP 13368; assay: MIC following resistance development; format: cell-based, Klebsiella; conditions: KP 13368; following resistance development
# Experimental: as §1, §2, §3, §4, §5, §6, §7, §8, §9, §10, §11, §12, §13
# (§16) The MIC of PP-A418 and colistin against the strains used in the time kill analysis of Example 31 following resistance development were measured. The MIC was measured using the general MIC protocol given above. The results are given in Table 14 below where the MIC values of resistant mutants are shown in the brackets.
# [24] = test system: resistant mutants of KP 13438; assay: MIC following resistance development; format: cell-based, Klebsiella; conditions: KP 13438; following resistance development
# Experimental: as §1, §2, §3, §4, §5, §6, §7, §8, §9, §10, §11, §12, §13, §16
# [25] = test system: resistant mutants of KP 16; assay: MIC following resistance development; format: cell-based, Klebsiella; conditions: KP 16; following resistance development
# Experimental: as §1, §2, §3, §4, §5, §6, §7, §8, §9, §10, §11, §12, §13, §16
molecule,measurement,setting,value
"C[C@H]1COc2c(N3CCN(C)CC3)c(F)cc3c(=O)c(C(=O)O)cn1c23 [Levofloxacin, levofloxacin]",MIC,"[1]; Klebsiella pneumoniae, read-out: MIC",8 to 16 µg/mL
same,MIC,"[2]; Klebsiella pneumoniae, MGH78578, read-out: MIC",1 µg/mL
same,MIC,"[3]; Klebsiella pneumoniae, NCTC13438, read-out: MIC",> 16 µg/mL
same,MIC,"[4]; Klebsiella pneumoniae, NCTC13439, read-out: MIC",16 µg/mL
same,MIC,"[5]; Klebsiella pneumoniae, NCTC13443, read-out: MIC",> 16 µg/mL
same,MIC,"[6]; Klebsiella pneumoniae, NCTC51851, read-out: MIC",> 16 µg/mL
same,MIC,"[7]; PA01, read-out: MIC",4 µg/mL
same,MIC,[8],> 16 µg/mL
same,MIC,"[9]; Klebsiella KP 342, read-out: MIC",0.5 to 1 µg/mL
"CCN(CC)C(=O)c1cc2cc(NC(=O)c3cc(NC(=O)CCCOc4cc5c(cc4OC)C(=O)N4CCC[C@H]4C=N5)cn3C)ccc2o1 [PP-B27, (S)—N-(2-(diethylcarbamoyl)benzofuran-5-yl)-4-(4-((7-methoxy-5-oxo-2,3,5,11a-tetrahydro-1H-benzo[e]pyrrolo[1,2-a][1,4]-diazepin-8-yl)oxy)butanamido)-1-methyl-1H-pyrrole-2-carboxamide]",MIC,[10],< 0.125 µg/mL
same,MIC,[11],0.25 µg/mL
same,MIC,[12],< 0.125 µg/mL
same,MIC,[13],0.25 µg/mL
same,MIC,[14],0.5 µg/mL
same,MIC,[15],< 0.125 µg/mL
same,MIC,[16],4 µg/mL
same,MIC,[17],4 µg/mL
same,MIC,[18],8 µg/mL
same,MIC,"[19]; Klebsiella pneumoniae, NCTC13368",64 µg/mL
same,MIC,[20],32 µg/mL
same,MIC,"[7]; PA01, PA01",128 µg/mL
same,IC50,[21],> 20 µM
same,IC50,[22],> 20 µM
colistin [reference compound],MIC,[1],2 to 4 µg/mL
same,MIC,[1]; listed as Collistin,1 µg/mL
same,MIC,[2],8 µg/mL
same,MIC,[19]; KP NCTC 13368,4 µg/mL
same,MIC,[3],2 µg/mL
same,MIC,[4],4 µg/mL
same,MIC,[5],2 µg/mL
same,MIC,[6],64 µg/mL
same,MIC,[9]; Klebsiella,4 µg/mL
same,MIC of resistant mutants (in brackets),[23],(32-64) μg/ml
same,MIC of resistant mutants (in brackets),[24],(64-128) μg/ml
same,MIC of resistant mutants (in brackets),[25],(64-128) μg/ml
